The values below are quoted from earlier work in patent US20080032954A1, “Vascular Damaging Agents for Administration as an Intravenous Infusion” (priority 2004, published 2008).

Structures are written as SMILES.

For data set [1] the following is noted: patients, 30 minute intravenous infusion once weekly.
The test system of the next data set is tumour. The following applies: nude rats.
The test system of data set [2] is proliferating endothelial cells.
The conditions of data set [3]: phase I study, patients with advanced cancer.
For data set [4] the following is noted: patients, intravenous infusion at three-week intervals.
The mark [5] stands for this setting: 20 mg/kg as 24-hour subcutaneous infusion versus 5 to 10 second IV bolus.

`COc1ccc(/C=C\c2cc(OC)c(OC)c(OC)c2)cc1NC(=O)[C@@H](N)CO` [AVE8062A]: the hypotension entry in data set [1] was “instances of asymptomatic hypotension”.
On to `COc1cc2c(c(OC)c1OC)-c1ccc(OP(=O)(O)O)cc1[C@@H](NC(C)=O)CC2` [ZD6126, (5S)-5-(acetylamino)-9,10,11-trimethoxy-6,7-dihydro-5H-dibenzo[a,c]cyclohepten-3-yl dihydrogen phosphate], for which the “ischemic changes on ECG” value (one of the two patients with troponin I elevation, 10 minute IV infusion once every three weeks) is “reversible grade 2 ischemic changes on ECG”. Also, the “elevation in troponin I” value (patients, 10 minute intravenous infusion once every three weeks) is on record as “two patients exhibited grade 3 transient asymptomatic elevation in troponin I”. Besides, the blood pressure change result (the other patient with troponin I elevation, 10 minute IV infusion once every three weeks) is “increase in blood pressure one hour after dosing”. In the data set with tumour (setting [5]), the “toxicity compared to single intravenous bolus” value was “significant increases in toxicity” and the “tumour necrosis compared to single intravenous bolus” value is on record as “no increase in tumour necrosis”. In addition, the tolerability entry with tumour (50 mg/kg as 24-hour subcutaneous infusion, in contrast to bolus of the same dose) is reported as “not tolerated”. Besides, in data set [2], the “effect on tubulin cytoskeleton and cell shape” value is on record as “disrupts the tubulin cytoskeleton causing rounding up and/or detachment of proliferating endothelial cells”.
Consider `COc1ccc(/C=C\c2cc(OC)c(OC)c(OC)c2)cc1OP(=O)(O)O` [combretastatin A4 phosphate], for which, in data set [3], the “hemodynamic and cardiac toxic events” value was “numerous hemodynamic and cardiac toxic events were observed”.
As to `COc1ccc(/C=C\c2cc(OC)c(OC)c(OC)c2)cc1O` [combretastatin A4], the “toxicity profile, 10-minute versus 60-minute infusion” value in data set [4] is given as “no difference in the toxicity profile”.
